Read-outs that look alike come from different tables or passages of the source.
How the values were obtained:
SNB-19 = test: WST-1 test, glioblastoma cells; format: cell-based, human
Protocol: (§1) Hybrids 4–14 were tested as anticancer agents against four human cancer cell lines: colon cancer (Caco-2), glioblastoma (SNB-19), lung cancer (A549), ovarian cancer (SKOV-3), and normal human dermal fibroblasts (NHDFs). Cisplatin was used as the reference substance. The results are presented as the compound concentration of the compound (μM) that inhibits the growth of 50% of cancer cells compared to control cells (IC50). A negative value (Neg) means that the compound concentration of the tested hybrids was greater than 500 µM. […] It is generated only by a weak van der Waals interaction with Arg84. […] There is also a visible difference in activity depending on the type of group present on the triazole ring (substituent C in Figure 2). The results obtained indicate that hybrids containing aromatic systems as a C substituent in their structure, especially another quinoline molecule (compounds 9 and 10), have high activity.
(§2) Cell cultures were performed in 96-well plates (Nunc Thermo Fisher Scientific, Waltham, MA, USA). Cells were seeded at 5 × 10^4/well and incubated for 24 h (at 37 °C, 5% CO2, and constant humidity). The medium was replaced with fresh with the addition of test compounds at a concentration of 0.1–100 µg/mL of DMSO and incubated again for another 72 h. After this time, the WST-1 test (Roche Molecular Biochemicals, Mannheim, Germany) was performed to assess the metabolic activity of the cells. Absorbance was measured at λ = 450 nm using a UVM340 microplate reader (Biogenet, Józefów, Poland). Results are expressed as the mean value of at least three independent experiments performed in triplicate.

SKOV-3 = test: WST-1 test, ovarian cancer cells; format: cell-based, human
Protocol: as §1, §2

NHDF = test: WST-1 test, normal human dermal fibroblasts; format: cell-based; details: 72 h, WST-1, normal cells
Protocol: as §1, §2

A549 = test: WST-1 test, lung cancer cells; format: cell-based, human; details: for IC50: read-out: IC50 A-549
Protocol: as §1, §2

Caco-2 = test: WST-1 test, colon cancer cells; format: cell-based, human; details: Homo sapiens, Caco-2, 72 h
Protocol: Hybrids 4–14 were tested as anticancer agents against four human cancer cell lines: colon cancer (Caco-2), glioblastoma (SNB-19), lung cancer (A549), ovarian cancer (SKOV-3), and normal human dermal fibroblasts (NHDFs).
as §2

N.N.[Cl][Pt][Cl] [Cisplatin, reference compound]
IC50 (SNB-19; 72 h): 2.93 µM
IC50 (SKOV-3; 72 h): 41.6 µM
IC50 (NHDF): > 500 µM
IC50 (A549; 72 h): 453 µM

O=S(=O)(NCc1cn(Cc2ccccc2)nn1)c1cccc2cccnc12 [Compound 4a, 8-N-[(1-Benzyl-1H-1,2,3-triazol-4-yl)methyl]quinolinesulfonamide]
IC50 (SNB-19; Homo sapiens, SNB-19, 72 h): > 500 µM
IC50 (SKOV-3; Homo sapiens, SK-OV-3, 72 h): > 500 µM
IC50 (NHDF; Homo sapiens, NHDF): > 500 µM
IC50 (A549; Homo sapiens, A549, 72 h): > 500 µM
melting point: 125 to 126 °C
IC50 (Caco-2): 26.4 µM

CN(Cc1cn(Cc2ccccc2)nn1)S(=O)(=O)c1cccc2cccnc12 [Compound 4b, 8-N-Methyl-N-[(1-benzyl-1H-1,2,3-triazol-4-yl)methyl]quinolinesulfonamide]
IC50 (SNB-19; Homo sapiens, SNB-19, 72 h): 1.18 µM
IC50 (SKOV-3; Homo sapiens, SK-OV-3, 72 h): 66.2 µM
IC50 (NHDF; Homo sapiens, NHDF): 191 µM
IC50 (A549; Homo sapiens, A549, 72 h): 7.72 µM
melting point: 103 to 105 °C
IC50 (Caco-2): 0.4 µM

N#Cc1ccc(Cn2cc(CNS(=O)(=O)c3cccc4cccnc34)nn2)cc1 [Compound 5a, 8-N-{[1-(4-Cyanobenzyl)-1H-1,2,3-triazol-4-yl]methyl}quinolinesulfonamide]
IC50 (SNB-19; Homo sapiens, SNB-19, 72 h): > 500 µM
IC50 (SKOV-3; Homo sapiens, SK-OV-3, 72 h): > 500 µM
IC50 (NHDF; Homo sapiens, NHDF): > 500 µM
IC50 (A549; Homo sapiens, A549, 72 h): > 500 µM
melting point: 110 to 111 °C
IC50 (Caco-2): 2.21 µM

CN(Cc1cn(Cc2ccc(C#N)cc2)nn1)S(=O)(=O)c1cccc2cccnc12 [Compound 5b, 8-N-Methyl-N-{[1-(4-cyanobenzyl)-1H-1,2,3-triazol-4-yl]methyl}quinolinesulfonamide]
IC50 (SNB-19; Homo sapiens, SNB-19, 72 h): 0.41 µM
IC50 (SKOV-3; Homo sapiens, SK-OV-3, 72 h): 14.1 µM
IC50 NHDF (NHDF): have activity against normal cells
IC50 (NHDF; Homo sapiens, NHDF): 9.16 µM
IC50 A-549 (A549; 72 h): nanomolar concentration range
IC50 (A549; Homo sapiens, A549, 72 h): 0.8 µM
melting point: 112 to 113 °C
IC50 (Caco-2): 0.4 µM

O=S(=O)(NCc1cn(Cc2ccc(F)cc2)nn1)c1cccc2cccnc12 [Compound 6a, 8-N-{[1-(4-Fluorobenzyl)-1H-1,2,3-triazol-4-yl]methyl}quinolinesulfonamide]
IC50 (SNB-19; Homo sapiens, SNB-19, 72 h): > 500 µM
IC50 (SKOV-3; Homo sapiens, SK-OV-3, 72 h): > 500 µM
IC50 (NHDF; Homo sapiens, NHDF): > 500 µM
IC50 (A549; Homo sapiens, A549, 72 h): > 500 µM
melting point: 118 to 119 °C
IC50 (Caco-2): 27.5 µM

CN(Cc1cn(Cc2ccc(F)cc2)nn1)S(=O)(=O)c1cccc2cccnc12 [Compound 6b, 8-N-Methyl-N-{[1-(4-fluorobenzyl)-1H-1,2,3-triazol-4-yl]methyl}quinolinesulfonamide]
IC50 (SNB-19; Homo sapiens, SNB-19, 72 h): 156 µM
IC50 (SKOV-3; Homo sapiens, SK-OV-3, 72 h): > 500 µM
IC50 (NHDF; Homo sapiens, NHDF): > 500 µM
IC50 (A549; Homo sapiens, A549, 72 h): > 500 µM
melting point: 85 to 86 °C
IC50 (Caco-2): 19.3 µM

O=[N+]([O-])c1ccc(Cn2cc(CNS(=O)(=O)c3cccc4cccnc34)nn2)cc1 [Compound 7a, 8-N-{[1-(4-Nitrobenzyl)-1H-1,2,3-triazol-4-yl]methyl}quinolinesulfonamide]
IC50 (SNB-19; Homo sapiens, SNB-19, 72 h): 0.83 µM
IC50 (SKOV-3; Homo sapiens, SK-OV-3, 72 h): 16.9 µM
IC50 (NHDF; Homo sapiens, NHDF): 169 µM
IC50 (A549; Homo sapiens, A549, 72 h): 36.1 µM
melting point: 135 to 136 °C
IC50 (Caco-2): 0.31 µM

CN(Cc1cn(Cc2ccc([N+](=O)[O-])cc2)nn1)S(=O)(=O)c1cccc2cccnc12 [Compound 7b, 8-N-Methyl-N-{[1-(4-nitrobenzyl)-1H-1,2,3-triazol-4-yl]methyl}quinolinesulfonamide]
IC50 (SNB-19; Homo sapiens, SNB-19, 72 h): 0.41 µM
IC50 (SKOV-3; Homo sapiens, SK-OV-3, 72 h): > 500 µM
IC50 (NHDF; Homo sapiens, NHDF): > 500 µM
IC50 (A549; Homo sapiens, A549, 72 h): > 500 µM
melting point: 103 to 105 °C
IC50 (Caco-2): 2.47 µM

O=S(=O)(NCc1cn(CSc2ccccc2)nn1)c1cccc2cccnc12 [Compound 8a, 8-N-[(1-Methylthiophenyl-1H-1,2,3-triazol-4-yl)methyl]quinolinesulfonamide]
IC50 (SNB-19; Homo sapiens, SNB-19, 72 h): 72.4 µM
IC50 (SKOV-3; Homo sapiens, SK-OV-3, 72 h): 115 µM
IC50 (NHDF; Homo sapiens, NHDF): 40.6 µM
IC50 (A549; Homo sapiens, A549, 72 h): 3.69 µM
melting point: 106 to 107 °C
IC50 (Caco-2): 14.3 µM

From paper PMC11243625, “Synthesis, Docking, and Machine Learning Studies of Some Novel Quinolinesulfonamides–Triazole Hybrids with Anticancer Activity” (Molecules, 2024)
